Experimental data from publication PMC9737734, “Phytochemical investigation of Ludwigia adscendens subsp. diffusa aerial parts in context of its biological activity” (BMC Chemistry, 2022).
Converted amounts (≈) assume the structure as drawn.

Tested on: PC-3 cells (human prostate cancer cell line)
Assay: Cytotoxic activity, MTT cell viability assay against PC-3 cell line
Type: cell-based
Details: read-out: Cytotoxcity activity IC50
Method: Cytotoxic activity of L. adscendens aerial part fractions were tested in vitro using MTT cell viability assay as previously described. Briefly, in each well plate 100 µL of fresh culture RPMI 1640 medium without phenol red then 10 µL of the 12 mM MTT stock solution (5 mg of MTT in 1 mL of PBS) were added to each well. An 85 µL aliquot of the incubated media was replaced by 50 µL of DMSO and incubated at 37 °C for 10 min. The optical density was measured at 590 nm with the microplate reader to determine the number of viable cells and the percentage of viability was calculated as the percentage of cell survival was calculated as follows: Surviving fraction=O.D.treated cells/O.D.control cells∗100

With COc1cccc2c1C(=O)c1c(O)c3c(c(O)c1C2=O)C[C@@](O)(C(=O)CO)C[C@@H]3O[C@H]1C[C@H](N)[C@H](O)[C@H](C)O1 [Doxorubicin] the IC50 was 34.9 ± 5.21 µg/mL (≈ 64.2 µM).
